Data: EP2970215B1, “PYRROLIDINE DERIVATIVES, PHARMACEUTICAL COMPOSITIONS CONTAINING THEM, AND THEIR USE IN THERAPY” (AbbVie Deutschland GmbH & Co. KG, priority 2013, dated 2014)

The compounds below were run against T1, human GlyT1c transporter (Homo sapiens, UniProt P48067) (assay: Radioligand binding assay using recombinant CHO cell membranes expressing human GlyT1). Settings: radioligand binding to human GlyT1c transporter-expressing membranes.
T1 construct: expressed in transfected cells; host or cells: CHO cells (recombinant; line hGlyT1c_5_CHO is named for the uptake assay)
T1 sequence (P48067 1-706): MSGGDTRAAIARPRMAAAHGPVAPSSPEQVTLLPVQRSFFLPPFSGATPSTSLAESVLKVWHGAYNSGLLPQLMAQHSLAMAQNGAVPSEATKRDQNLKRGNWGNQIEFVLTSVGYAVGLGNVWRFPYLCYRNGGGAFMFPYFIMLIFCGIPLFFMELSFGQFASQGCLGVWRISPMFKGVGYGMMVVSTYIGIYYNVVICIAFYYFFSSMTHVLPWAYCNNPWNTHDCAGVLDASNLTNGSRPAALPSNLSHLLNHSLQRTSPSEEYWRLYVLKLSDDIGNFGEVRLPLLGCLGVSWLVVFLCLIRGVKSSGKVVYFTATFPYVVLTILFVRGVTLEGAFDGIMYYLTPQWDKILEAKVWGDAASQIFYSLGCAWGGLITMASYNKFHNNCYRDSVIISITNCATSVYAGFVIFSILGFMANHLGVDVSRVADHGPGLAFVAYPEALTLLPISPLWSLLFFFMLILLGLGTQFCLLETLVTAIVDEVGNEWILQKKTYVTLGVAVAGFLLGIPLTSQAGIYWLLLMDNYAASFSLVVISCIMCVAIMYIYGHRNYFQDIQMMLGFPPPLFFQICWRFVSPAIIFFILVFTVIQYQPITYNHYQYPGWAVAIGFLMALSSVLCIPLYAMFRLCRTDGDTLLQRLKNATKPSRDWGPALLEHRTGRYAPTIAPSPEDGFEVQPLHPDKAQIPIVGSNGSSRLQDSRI
Excerpt: 2. Radioligand binding assays using recombinant CHO cell membranes expressing human GlyT1: […]

SMILES | Ki
Cc1cccc(NC[C@@H]2CN(S(=O)(=O)c3cn(C)cn3)C[C@H]2c2ccc(F)cc2)c1 (relative stereo) [Example 334, N-({Trans-4-(4-fluorophenyl)-1-[(1-methyl-1H-imidazol-4-yl)sulfonyl]pyrrolidin-3-yl}methyl)-3-methylaniline] | ≤ 1 µM
Cn1cnc(S(=O)(=O)N2C[C@@H](CNc3cccc(C(F)(F)F)c3)[C@H](c3ccc(F)cc3)C2)c1 (relative stereo) [Example 335, N-({Trans-4-(4-fluorophenyl)-1-[(1-methyl-1H-imidazol-4-yl)sulfonyl]pyrrolidin-3-yl}methyl)-3-(trifluoromethyl)aniline] | ≤ 1 µM
Cn1cnc(S(=O)(=O)N2C[C@@H](Nc3cccc(C(F)(F)F)c3)[C@H](C3CC3)C2)c1 (relative stereo) [Example 337, Trans-4-cyclopropyl-1-[(1-methyl-1H-imidazol-4-yl)sulfonyl]-N-[3-(trifluoromethyl)phenyl]pyrrolidin-3-amine] | ≤ 1 µM
Cn1cnc(S(=O)(=O)N2C[C@@H](Nc3cccc(Cl)c3)[C@H](C3CC3)C2)c1 (relative stereo) [Example 338, Trans-N-(3-chlorophenyl)-4-cyclopropyl-1-[(1-methyl-1H-imidazol-4-yl)sulfonyl]pyrrolidin-3-amine] | ≤ 1 µM
Cn1cnc(S(=O)(=O)N2C[C@@H](Nc3cccc(C(F)(F)F)c3)[C@H](c3ccccn3)C2)c1 (relative stereo) [Example 344, trans-1-[(1-methyl-1H-imidazol-4-yl)sulfonyl]-4-(pyridin-2-yl)-N-[3-(trifluoromethyl)phenyl]pyrrolidin-3-amine] | ≤ 0.1 µM
Cn1cnc(S(=O)(=O)N2C[C@@H](Nc3cccc(Cl)c3)[C@H](c3ccccn3)C2)c1 (relative stereo) [Example 345, Trans-N-(3-chlorophenyl)-1-[(1-methyl-1H-imidazol-4-yl)sulfonyl]-4-(pyridin-2-yl)pyrrolidin-3-amine] | ≤ 0.1 µM
Cn1cnc(S(=O)(=O)N2C[C@@H](COc3cc(C(F)(F)F)ccn3)[C@H](c3ccc(F)cc3)C2)c1 (relative stereo) [Example 346, 2-({Trans-4-(4-fluorophenyl)-1-[(1-methyl-1H-imidazol-4-yl)sulfonyl]pyrrolidin-3-yl}methoxy)-4-(trifluoromethyl)pyridine] | ≤ 1 µM
Cn1cnc(S(=O)(=O)N2C[C@@H](C(=O)Nc3cccc(C#N)c3)[C@H](c3ccc(F)cc3)C2)c1 (relative stereo) [Example 347, Trans-N-(3-cyanophenyl)-4-(4-fluorophenyl)-1-[(1-methyl-1H-imidazol-4-yl)sulfonyl]pyrrolidine-3-carboxamide] | ≤ 10 µM
Cn1cnc(S(=O)(=O)N2C[C@@H](COc3ccc(F)cc3)[C@H](c3ccc(F)cc3)C2)c1 (relative stereo) [Example 348, 4-{[Trans-3-[(4-fluorophenoxy)methyl]-4-(4-fluorophenyl)pyrrolidin-1-yl]sulfonyl}-1-methyl-1H-imidazole] | ≤ 0.1 µM
Cn1cnc(S(=O)(=O)N2C[C@@H](C(=O)Nc3ccc(F)cc3)[C@H](c3ccc(F)cc3)C2)c1 (relative stereo) [Example 358, Trans-N,4-bis(4-fluorophenyl)-1-[(1-methyl-1H-imidazol-4-yl)sulfonyl]pyrrolidine-3-carboxamide] | ≤ 0.1 µM
Cn1cnc(S(=O)(=O)N2C[C@@H](C(=O)c3ccc(Cl)c(Cl)c3)[C@H](c3ccc(F)cc3)C2)c1 (relative stereo) [Example 359, (3,4-Dichlorophenyl){trans-4-(4-fluorophenyl)-1-[(1-methyl-1H-imidazol-4-yl)sulfonyl]pyrrolidin-3-yl} methanone] | ≤ 1 µM
Cn1cnc(S(=O)(=O)N2C[C@@H](C(=O)c3ccc(OC(F)(F)F)cc3)[C@H](c3ccc(F)cc3)C2)c1 (relative stereo) [Example 363, {Trans-4-(4-fluorophenyl)-1-[(1-methyl-1H-imidazol-4-yl)sulfonyl]pyrrolidin-3-yl}[4-(trifluoromethoxy)phenyl]methanone] | ≤ 0.1 µM
Cn1cnc(S(=O)(=O)N2C[C@@H](CNc3cccc(CN)c3)[C@H](c3ccc(F)cc3)C2)c1 (relative stereo) [Example 365, 3-(Aminomethyl)-N-({Trans-4-(4-fluorophenyl)-1-[(1-methyl-1H-imidazol-4-yl)sulfonyl]pyrrolidin-3-yl}methyl)aniline] | ≤ 10 µM
Cn1cnc(S(=O)(=O)N2C[C@@H](CNc3ccc(F)cc3)[C@H](c3ccc(F)cc3)C2)c1 (relative stereo) [Example 367, 4-Fluoro-N-({trans-4-(4-fluorophenyl)-1-[(1-methyl-1H-imidazol-4-yl)sulfonyl]pyrrolidin-3-yl}methyl)aniline] | ≤ 0.1 µM
Cn1cnc(S(=O)(=O)N2C[C@@H](C(=O)Nc3cc(C(F)(F)F)ccn3)[C@H](c3ccc(F)cc3)C2)c1 (relative stereo) [Example 369, Trans-4-(4-fluorophenyl)-1-[(1-methyl-1H-imidazol-4-yl)sulfonyl]-N-[4-(trifluoromethyl)pyridin-2-yl]pyrrolidine-3-carboxamide] | ≤ 1 µM

Now from value to compound:

Ki | SMILES
≤ 1 µM | Cn1cnc(S(=O)(=O)N2C[C@@H](COc3ccc(F)c(Cl)c3)[C@H](c3ccc(F)cc3)C2)c1 (relative stereo) [Example 318, 4-{[Trans-3-[(3-chloro-4-fluorophenoxy)methyl]-4-(4-fluorophenyl)pyrrolidin-1-yl]sulfonyl}-1-methyl-1H-imidazole]
≤ 0.01 µM | Cn1cnc(S(=O)(=O)N2C[C@@H](NCc3ccc(C(F)(F)F)cc3Cl)[C@H](c3ccccn3)C2)c1 (relative stereo) [Example 320, trans-N-[2-chloro-4-(trifluoromethyl)benzyl]-1-[(1-methyl-1H-imidazol-4-yl)sulfonyl]-4-(pyridin-2-yl)pyrrolidin-3-amine]
≤ 0.1 µM | Cn1cnc(S(=O)(=O)N2C[C@@H](CNc3ccc(C(F)(F)F)cc3Cl)[C@H](c3ccc(F)cc3)C2)c1 (relative stereo) [Example 332, 2-Chloro-N-({trans-4-(4-fluorophenyl)-1-[(1-methyl-1H-imidazol-4-yl)sulfonyl]pyrrolidin-3-yl}methyl)-4-(trifluoromethyl)aniline]
≤ 1 µM | Cn1cnc(S(=O)(=O)N2C[C@@H](CNc3cccc(Cl)c3)[C@H](c3ccc(F)cc3)C2)c1 (relative stereo) [Example 333, 3-Chloro-N-({trans-4-(4-fluorophenyl)-1-[(1-methyl-1H-imidazol-4-yl)sulfonyl]pyrrolidin-3-yl}methyl)aniline]
≤ 1 µM | Cn1cnc(S(=O)(=O)N2C[C@@H](COc3cc(C(F)(F)F)ncn3)[C@H](c3ccc(F)cc3)C2)c1 (relative stereo) [Example 336, 4-({Trans-4-(4-fluorophenyl)-1-[(1-methyl-1H-imidazol-4-yl)sulfonyl]pyrrolidin-3-yl}methoxy)-6-(trifluoromethyl)pyrimidine]
≤ 10 µM | Cn1cnc(S(=O)(=O)N2C[C@@H](Nc3ccc(C#N)c(F)c3)[C@H](c3ccc(F)cc3)C2)c1 (relative stereo) [Example 342, 2-fluoro-4-({trans-4-(4-fluorophenyl)-1-[(1-methyl-1H-imidazol-4-yl)sulfonyl]pyrrolidin-3-yl}amino)benzonitrile]
≤ 1 µM | Cn1cnc(S(=O)(=O)N2C[C@@H](C(=O)c3ccc(F)c(F)c3)[C@H](c3ccc(F)cc3)C2)c1 (relative stereo) [Example 357, (3,4-Difluorophenyl){trans-4-(4-fluorophenyl)-1-[(1-methyl-1H-imidazol-4-yl)sulfonyl]pyrrolidin-3-yl}methanone]
≤ 1 µM | Cn1cnc(S(=O)(=O)N2C[C@@H](C(=O)c3cc(F)cc(Cl)c3)[C@H](c3ccc(F)cc3)C2)c1 (relative stereo) [Example 361, (3-Chloro-5-fluorophenyl){trans-4-(4-fluorophenyl)-1-[(1-methyl-1H-imidazol-4-yl)sulfonyl]pyrrolidin-3-yl} methanone]
≤ 10 µM | Cn1cnc(S(=O)(=O)N2C[C@@H](CNc3cccc(C(N)=O)c3)[C@H](c3ccc(F)cc3)C2)c1 (relative stereo) [Example 364, 3-[({Trans-4-(4-fluorophenyl)-1-[(1-methyl-1H-imidazol-4-yl)sulfonyl]pyrrolidin-3-yl}methyl)amino]benzamide]
≤ 0.1 µM | Cn1cnc(S(=O)(=O)N2C[C@@H](COc3ccnc(C(F)(F)F)c3)[C@H](c3ccc(F)cc3)C2)c1 (relative stereo) [Example 366, 4-({Trans-4-(4-fluorophenyl)-1-[(1-methyl-1H-imidazol-4-yl)sulfonyl]pyrrolidin-3-yl}methoxy)-2-(trifluoromethyl)pyridine]
≤ 1 µM | Cn1cnc(S(=O)(=O)N2C[C@@H](C(=O)Nc3ccc(F)c(OC(F)(F)F)c3)[C@H](c3ccc(F)cc3)C2)c1 (relative stereo) [Example 370, Trans-4-(4-fluorophenyl)-N-[4-fluoro-3-(trifluoromethoxy)phenyl]-1-[(1-methyl-1H-imidazol-4-yl)sulfonyl]pyrrolidine-3-carboxamide]
